# “And” between values parts separate entries of the source, which are not always exact repeats. Equal entries are not always repeated.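 In this assay, cells in 96-well plates receive the compound at five concentrations for 48 hours. Endpoints are linearly interpolated between the surrounding concentrations. At the GI50, growth is halved. TGI is the concentration that stops growth completely.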
# Assays:
# Test in all cases: NCI tumour cell line growth inhibition, 48 h
# [1] = tested on: SK-MEL-28 melanoma
# [2] = tested on: HCC-2998 colon
# [3] = tested on: A549 NSCLC
# [4] = tested on: SK-OV-3 ovarian
# [5] = tested on: K-562 leukemia
# [6] = tested on: OVCAR-3 ovarian
# [7] = tested on: CAKI-1 renal
# [8] = tested on: DU-145 prostate
# [9] = tested on: OVCAR-5 ovarian
# [10] = tested on: HL-60(TB) leukemia
SMILES,GI50 [1],TGI [1],GI50 [2],TGI [2],GI50 [3],TGI [3],GI50 [4],TGI [4],GI50 [5] [µM],TGI [5] [µM],GI50 [6],TGI [6],GI50 [7],TGI [7],GI50 [8],TGI [8],GI50 [9],TGI [9],GI50 [10],TGI [10]
COc1cc(C2NC(=O)C(C#N)=C(Nc3cccc(C)c3)S2)ccc1O (centres undefined),> 100 µM,> 100 µM,> 100 µM,> 100 µM,> 100 µM,> 100 µM,> 100 µM,> 100 µM,> 100,> 100,> 100 µM,> 100 µM,> 100 µM,> 100 µM,> 100 µM,> 100 µM,> 100 µM,> 100 µM,> 100 µM,> 100 µM
O=C1Cc2cc(CCN3CCNCC3)c(Cl)cc2N1,37 µM,> 100 µM,46.6 µM,> 100 µM,6.85 µM,> 100 µM,> 100 µM,> 100 µM,6.24,> 100,14.1 µM,> 100 µM,6.11 µM,> 100 µM,19.9 µM,> 100 µM,79.2 µM,> 100 µM,43 µM,> 100 µM
CN(CCCCCl)P(=O)(OCc1ccc([N+](=O)[O-])o1)OCC1OC(n2cc([N+](=O)[O-])c(=O)[nH]c2=O)CC1O (centres undefined),45.9 µM,> 100 µM,37.7 µM,> 100 µM,> 100 µM,> 100 µM,96.4 µM,> 100 µM,49.8,> 100,43.6 µM,> 100 µM,48.5 µM,> 100 µM,> 100 µM,> 100 µM,> 100 µM,> 100 µM,> 100 µM,> 100 µM
FC(F)(F)c1cccc(-c2[nH]ncc2-c2nnnn2-c2ccccc2)c1,5.6 µM,19.1 µM,2.5 µM,11 µM,4.54 µM,84.9 µM,6.05 µM,21.9 µM,3.3,15.8,2.97 µM,10.9 µM,5.36 µM,27.7 µM,7.43 µM,21.5 µM,10.6 µM,31.2 µM,3.94 µM,8.86 µM
COC(=O)CC1=C(C)/C(=C/c2[nH]c(-c3ccc[nH]3)cc2OC)N=C1C,0.456 µM,2.53 µM,0.207 µM,6.07 µM,0.248 µM,3.69 µM,0.581 µM,4.19 µM,0.218,10.6,0.204 µM,1.36 µM,0.231 µM,2.34 µM,0.315 µM,12.8 µM,0.195 µM,6.06 µM,0.154 µM,0.882 µM
COc1ccc(/C=C/c2ccnc3ccccc23)cc1OC,,31.7 µM,,> 100 µM,,31.2 µM,,92.8 µM,,22.1,,26.6 µM,,29.3 µM,,26.6 µM,,27.6 µM,,25.5 µM
COC(=O)c1cc(-c2ccc(S(C)(=O)=O)cc2)[nH]c1N/N=C/c1c(Cl)cccc1Cl,0.893 µM,> 58.2 µM,0.987 µM,19.8 µM,0.656 µM,> 39.4 µM,0.852 µM,28.6 µM,1.87,> 100,0.273 µM,0.704 µM,0.377 µM,13.9 µM,0.732 µM,5.53 µM,4.08 µM,> 100 µM,0.57 µM,> 100 µM
CNc1cc(-c2cccc(OC(F)(F)F)c2)nc2ccc(N3CCCC3)cc12,1.64 µM and 1.78 µM and 1.67 µM,3.03 µM and 3.2 µM and 3.06 µM,1.93 µM and 1.94 µM and 1.75 µM,3.5 µM and 3.48 µM and 3.23 µM,1.79 µM and 1.66 µM and 1.75 µM,3.26 µM and 3.03 µM and 3.27 µM,1.66 µM and 1.67 µM and 1.74 µM,3.04 µM and 3.03 µM and 3.14 µM,0.884,3.61,1.69 µM and 1.92 µM and 1.86 µM,3.14 µM and 3.6 µM and 3.39 µM,1.57 µM and 1.53 µM and 1.6 µM,2.91 µM and 2.88 µM and 2.97 µM,1.61 µM and 1.84 µM and 1.88 µM,3.12 µM and 3.5 µM and 3.4 µM,1.68 µM and 2.04 µM and 1.87 µM,3.18 µM and 3.73 µM and 3.34 µM,2.12 µM and 1.96 µM and 1.95 µM,4.65 µM and 4.94 µM and 4.28 µM
CN(C)c1ccc2[nH]c3c(C(N)=O)cc(=O)c(=O)c=3oc2c1,4.2 µM,> 100 µM,4.9 µM,> 100 µM,3.19 µM,> 100 µM,3.54 µM,> 100 µM,0.358,> 100,0.508 µM,6.85 µM,3.48 µM,> 100 µM,4.6 µM,> 100 µM,3.36 µM,17.2 µM,0.668 µM,4.04 µM
Fc1ccc(Nc2nc(Nc3ccc(-c4nc5ccccc5[nH]4)cc3)c3cn[nH]c3n2)cc1,1.88 µM,3.78 µM,1.57 µM,3.05 µM,2.75 µM,6.78 µM,5.03 µM,17.5 µM,3.04,7.41,1.94 µM,4.42 µM,1.97 µM,5.41 µM,1.87 µM,3.75 µM,2.66 µM,7.62 µM,2.96 µM,6.92 µM
COc1ccc2c(c1)-c1c(c3cc(OC)ccc3n(CCN(C)C)c1=O)C2=O,2.59 µM,8.73 µM,1.18 µM,9.24 µM,0.388 µM,2.97 µM,1.73 µM,8.77 µM,0.28,3.09,0.843 µM,4.73 µM,1.77 µM,18.8 µM,0.565 µM,3.54 µM,3.14 µM,12.7 µM,1.38 µM,5.97 µM
CC/C=C\C[C@H]1C/C=C2/C(=O)C(Cl)=C[C@@H]2C/C=C\CCCC(=O)O1,0.46 µM,1.15 µM,0.437 µM,0.826 µM,0.748 µM,2.75 µM,1.04 µM,3.49 µM,0.0961,3.14,0.153 µM,0.677 µM,0.45 µM,1.51 µM,0.517 µM,1.85 µM,0.592 µM,1.84 µM,0.527 µM,2.7 µM
C=C(C)C(=O)Nc1ccc(-c2c(-c3ccc(Oc4nccc(C)n4)c(F)c3)c3c(N)ncnc3n2C)cc1,4.38 µM,17.6 µM,7.45 µM,21 µM,3.6 µM,18.5 µM,14.7 µM,69.2 µM,3.43,> 100,4.77 µM,18.4 µM,1.92 µM,8.23 µM,3.86 µM,15.3 µM,4.43 µM,20.9 µM,4.74 µM,> 100 µM
O=C1NC(=NCCc2ccc(Br)cc2)S/C1=C\c1ccc2ncccc2c1,> 25 µM,> 25 µM,> 25 µM,> 25 µM,> 25 µM,> 25 µM,> 25 µM,> 25 µM,24.6,> 25,> 25 µM,> 25 µM,> 20.3 µM,> 25 µM,> 25 µM,> 25 µM,> 25 µM,> 25 µM,> 25 µM,> 25 µM
C=CCSC(C)=O,,> 100 µM,,> 100 µM,,> 100 µM,,> 100 µM,,> 100,,> 100 µM,,> 100 µM,,> 100 µM,,> 100 µM,,> 100 µM
COc1cc(C(=O)O[C@H](C(=O)NCCCCNC(=O)[C@@H](OC(=O)c2cc(OC)cc3c(C)cccc23)[C@]2(C)CO2)[C@]2(C)CO2)c2cccc(C)c2c1,0.0409 µM,50 µM,0.0442 µM,0.343 µM,0.26 µM,0.699 µM,0.703 µM,6.19 µM,,3.05,0.207 µM,0.73 µM,0.0122 µM,0.0986 µM,,0.352 µM,0.257 µM,1.05 µM,< 0.01 µM,< 0.01 µM
Cc1c(C(N)=O)sc2nc(C)n(/N=c3\scc(-c4ccccc4)n3Cc3ccccc3)c(=O)c12,3.56 µM,> 100 µM,3.05 µM,> 100 µM,3.79 µM,> 100 µM,4.51 µM,> 100 µM,8.89,> 100,2.28 µM,8.58 µM,3.35 µM,> 100 µM,3.9 µM,> 100 µM,4.33 µM,> 100 µM,6.68 µM,> 100 µM
CCCCCCCCN=C(NCCCCCCCC)SCc1cccc2ccccc12,1.95 µM,3.44 µM,1.62 µM,3.05 µM,1.67 µM,3.13 µM,,,0.975,3.26,1.72 µM,3.21 µM,1.56 µM,2.97 µM,1.8 µM,3.29 µM,1.36 µM,2.79 µM,1.23 µM,3.01 µM
COc1ccc2c(c1)C(=O)c1c-2n(CCCN(C)C)c(=O)c2cc([N+](=O)[O-])ccc12,0.192 µM,2.59 µM,0.0131 µM,0.255 µM,,,< 0.01 µM,0.666 µM,< 0.01,2.29,0.0191 µM,0.748 µM,< 0.01 µM,,< 0.01 µM,0.0319 µM,0.0235 µM,0.394 µM,< 0.01 µM,0.245 µM
COc1ccc(-c2[nH]ncc2Nc2cc(OC)c(OC)c(OC)c2)cc1,2.57 µM,> 100 µM,2.17 µM,37.9 µM,3.39 µM,> 100 µM,3.09 µM,> 77.8 µM,0.42,> 52.3,0.962 µM,3.69 µM,5.64 µM,> 100 µM,4 µM,64.1 µM,5.26 µM,> 100 µM,0.304 µM,1.57 µM
N#CC1=C(N)OC2=C(CCOc3c2ccc2ccccc32)C1c1ccc(Br)cc1 (centres undefined),61.5 µM,> 100 µM,22.1 µM,56.9 µM,47.1 µM,> 100 µM,28.8 µM,> 100 µM,16.5,54.3,15.1 µM,39.4 µM,15.1 µM,80.6 µM,> 100 µM,> 100 µM,96.3 µM,> 100 µM,17 µM,37.6 µM
CC(=O)c1c(C)c2cnc(Nc3ccc(N4CCNCC4)cn3)nc2n(C2CCCC2)c1=O,12.3 µM,25.7 µM,10.6 µM,23.9 µM,3.69 µM,19.2 µM,9.73 µM,22.1 µM,3.34,19.7,15.9 µM,30.4 µM,1.61 µM,17.2 µM,9.82 µM,21.7 µM,8.59 µM,22.3 µM,0.638 µM,24.8 µM
COc1ccc2c(c1)/C(=N/OC(C)=O)c1c-2c(OC)nc2ccccc12,> 100 µM,> 100 µM,> 100 µM,> 100 µM,> 100 µM,> 100 µM,48.1 µM,> 100 µM,> 100,> 100,> 100 µM,> 100 µM,> 100 µM,> 100 µM,> 100 µM,> 100 µM,> 100 µM,> 100 µM,> 100 µM,> 100 µM
CC1=C[C@@H]2c3c(c(O)c(O)c4oc5cc(O)cc(O)c5c(=O)c34)[C@@H](c3cc(O)c(O)c4oc5cc(O)cc(O)c5c(=O)c34)[C@@H]2C(C)(C)C1,5.64 µM,18.7 µM,3.87 µM,15.2 µM,4.12 µM,17.6 µM,3.77 µM,14.6 µM,2.34,80,3.33 µM,13.4 µM,3.93 µM,14 µM,5.53 µM,16.6 µM,7.83 µM,18.2 µM,4.87 µM,27.4 µM
CSc1ccc(C(=O)/C=C/c2ccc(Cl)cc2Cl)cc1,,,17.2 µM,35.8 µM,17.7 µM,40.5 µM,,,6.48,49.5,21.9 µM,49.2 µM,33.4 µM,92 µM,25.7 µM,89.2 µM,21.6 µM,52.2 µM,18.4 µM,38.2 µM

# — PubChem BioAssay (NCI)
